Experimental data from patent US5436273A, “Psychoactive propargylamine derivatives used in the treatment of anxiety, psychotic states or aggression” (Lowchol Scientific, Inc., priority 1993, dated 1995).
“Also recorded” adds a separate entry of the source. Read-outs that look alike come from different tables or passages of the source.

What was measured:
[1] = Effect on body temperature in mice; assay type: in vivo, CD #1 mice; details: for Temp. Difference from Control: one hour
Protocol: 9. Effect on Body Temperature in Mice
Female CD #1 mice (20-30 g) are used. Rectal temperature is recorded before and one hour after s.c. administration of the compound to be studied (N=8/doses×4 doses). The solvent used is sterile water for intravenous injection.
The results which are reported in Table 9 are expressed in terms of the variation of temperature for different doses. Buspirone was tested on Sprague Dawley rats.

[2] = tested on: aggressive behavior of combative mice; assay: Duration of antiaggressive effect; assay type: in vivo; details: single dose 10 mg/kg i.p., FIG. 2
From the text: 11. Duration of Antiaggressive Effect

[3] = tested on: spontaneous motor activity in rats; assay: Inhibition of spontaneous motor activity in rats; assay type: in vivo, Sprague Dawley rats; details: for ED50: Rattus norvegicus, ip, 0.5 h, i.p., 30 minutes
Protocol: (§1) Two animals are studied simultaneously, one treated and one control. After a 2 hour period of acclimatization to the room, a first activity count of 10 minutes duration is perfomed. The compound to be studied is then administered i.p. and the spontaneous activity is reevaluated 30 minutes later over a period of 10 minutes.
5. Inhibition of Spontaneous Motor Activity in Rats
The method is the same as described above for mice, except that because of the size of the animals (Sprague Dawley rats; 300 g), the test and control animals are not evaluated simultaneously, but alternatively.

[4] = tested on: isolation induced aggressive behavior in mice; assay: Inhibition of isolation induced fighting behavior in mice; assay type: in vivo, CD #1 mice; details: i.p.
Protocol: 1. Inhibition of Isolation Induced Fighting Behavior in Mice
After this period of confinement, the animals usually develop a marked intraspecific aggressive behavior when they are placed in the same cage.
The compound to be studied is administered i.p. to the selected groups (N=8 pairs/dose×5 doses) and the aggressive behavior is tested again 30 minutes later. […] A one week washout period is allowed between treatments.

[5] = tested on: spontaneous motor activity in mice; assay: Inhibition of spontaneous motor activity in mice; assay type: in vivo, CD #1 mice; details: for ED50: Mus musculus, ip, 0.5 h, i.p., 30 minutes
Protocol: 4. Inhibition of Spontaneous Motor Activity in Mice
Female CD #1 mice (20-30 g) are used for this experiment. The effect of the compound to be studied on spontaneous activity was evaluated by an automated […] XYZ system. This system allows the simultaneous quantification of the following parameters:
number of stereotypic movements;
number of vertical movements;
number of clockwise revolutions; and
number of counterclockwise revolutions.
as §1

[6] = tested on: aggressive behavior of combative mice; assay: Persistence of antiaggressive effect; assay type: in vivo; details: 10 mg/kg i.p. daily for five days, FIG. 3
From the text: 12. Persistence of Antiaggressive Effect

in vivo = details: mouse, ip
[7] = tested on: aggressive behavior in combative mice; assay: Inhibition of aggressive behavior in combative mice at various times (correlation with plasma concentration); assay type: in vivo; details: 10 mg/kg i.p.; for inhibition at 10 mg/kg: Mus musculus, ip
Protocol: The mice are placed together, in pairs, for 5 minutes. This pairing is performed 10, 25, 55, 85 and 115 minutes after the administration of compound N^o 3. One minute after each of the 5 minute periods of placing the animals together, three pairs of animals are anesthetized with ether and guillotined in order to determine the concentration of compound N^o 3 in the plasma. The plasma sample is prepared by centrifugation (16,000 G) of 800 μl of blood to which 50 μl of EDTA Na4 (0.1M) is added. The inhibition of aggressive behavior at the different times in which the animals are placed together and the number of pairs evaluated is shown in the following Table: […]

Acute toxicity test = details: mouse, in vivo, ip
Protocol: CD #1 mice (20-30 g) are used for this test. The animals are individualy housed in glass beakers for a 2 hour period of acclimatization without food and water.

[8] = tested on: conditioned avoidance response in rats; assay: Inhibition of conditioned avoidance response in rats; assay type: in vivo, Sprague Dawley rats
From the text: 6. Inhibition of Conditioned Avoidance Response in Rats
Male Sprague Dawley rats (200-250 g) are trained to avoid an electric foot shock, by continuously changing room with the appropriate visuals and auditory signals, in an automatic 2-way conditioned avoidance apparatus (Coulbourn Instrument Co.). Only the animals that perform at least a 70% avoidance (3 successive training sessions) are kept for the experiment.
The day of the experiment, the selected animals are submitted to a pre-treatment control session. The compound to be studied is then administered i.p. and the animals are placed back in the apparatus for evaluation 30 minutes later. Diazepam was used as a standard.

[9] = tested on: righting reflex / ethanol narcosis in mice; assay: Potentiation of sleeping time induced by ethanol in mice; assay type: in vivo, CD #1 mice; details: for percentage of animals displaying a loss of the righting reflex: with ethanol
Protocol: 7. Potentiation of Sleeping Time Induced by Ethanol in Mice
This test was done with male CD #1 mice of 25-35 g. The mice are injected intraperitoneally (8 mice per dose). A subhypnotic dose of ethanol (12 ml/kg of 50% ethanol solution) is administered orally 30 minutes later.
The loss of the righting reflex is evaluated, for each animal, 30 minutes after the administration of the alcohol. It is considered that there is a potentialization of ethanol narcosis if the righting time exceeded 30 seconds.
The results which are reported in Table 7 are expressed in terms of the percentage of animals displaying a loss of the righting reflex versus the administered dose. Chlorpromazine (5 mg/kg i.p.) is used as a standard.

[10] = read-out: ED50, clockwise revolutions
[11] = read-out: ED50, counterclockwise revolutions
[12] = read-out: ED50, horizontal activity
[13] = read-out: ED50, number of movements
[14] = read-out: ED50, number of stereotypic movements
[15] = read-out: ED50, stereotypy time

SMILES: C#CC(C)N (stereo not shown) [Compound 3, 2-Amino-3-butyne]
- Temp. Difference from Control ([1]; dose 10, s.c.): -2.6
- Temp. Difference from Control ([1]; dose 30, s.c.): -2.5
- Temp. Difference from Control ([1]; dose 100, s.c.): -4.1
- hypothermia (in words) ([1]; s.c.): slight, transient hypothermia comparable to that induced by buspirone
- duration of inhibitory effect on aggressive behavior [2]: approximately 4 hours
- inhibition of spontaneous motor activity (in words) [3]: of comparable activity in rats
- ED50 [3, 10]: 4.1 ± 1.4 mg/kg
- ED50 [3, 11]: 3.7 ± 1.7 mg/kg
- ED50 [3, 12]: 4.2 ± 1.8 mg/kg
- ED50 ([3]; read-out: ED50, movement time): 5.5 ± 2.3 mg/kg
- ED50 [3, 13]: 11.8 ± 7.9 mg/kg
- ED50 [3, 14]: 5.2 ± 2.4 mg/kg
- ED50 [3, 15]: 4.2 ± 1.7 mg/kg
- ED50 ([3]; read-out: ED50, total distance): 4.9 ± 2 mg/kg
- ED50 ([4]; Mus musculus, ip, 0.5 h, read-out: ED50 (dose that suppressed aggressive behavior in 50% of the animals), 30 minutes after administration, probit analysis): 8 mg/kg
- inhibition of aggressive behavior (in words) ([4]; mice): particularly potent inhibitors
- inhibition of spontaneous motor activity (in words) [5]: more active than buspirone in mice
- ED50 [5, 10]: 3.3 ± 1.6 mg/kg
- ED50 [5, 11]: 2.7 ± 1.9 mg/kg
- ED50 [5, 12]: 4.3 ± 2.2 mg/kg
- ED50 ([5]; read-out: ED50, movement time): 8.1 ± 4.5 mg/kg
- ED50 [5, 13]: 11.8 ± 5.9 mg/kg
- ED50 [5, 14]: 5.5 ± 2.2 mg/kg
- ED50 [5, 15]: 3.8 ± 1.6 mg/kg
- ED50 ([5]; read-out: ED50, total distance): 5.5 ± 3.4 mg/kg
- ED50 ([5]; read-out: ED50, vertical activity): 2.5 ± 1.2 mg/kg
- ED50 ([5]; read-out: ED50, vertical movements): 3.2 ± 1.6 mg/kg
- ED50 ([5]; read-out: ED50, vertical time): 2.6 ± 1.5 mg/kg
- persistence of inhibitory effect on aggressive behavior (in words) [6]: also persists when the compound is administered on a daily basis
- TD50 at 0.5 h (in vivo): 720 mg/kg
- antiaggressive activity over time (in words) [7]: noticeable activity after a few minutes; also recorded: activity is maximal when the plasma concentration is no longer detectable
- time of maximum antiaggressive activity [7]: 60 min
- inhibition at 10 mg/kg ([7]; 0.5 h, 30 min, 12 pairs): 87.5%
- inhibition at 10 mg/kg ([7]; 1 h, 60 min, 9 pairs): 100%
- inhibition at 10 mg/kg ([7]; 1.5 h, 90 min, 3 pairs): 100%
- inhibition at 10 mg/kg ([7]; 2 h, 120 min, 3 pairs): 100%
- inhibition at 10 mg/kg ([7]; 15 min, 15 pairs): 75%
- LD50 (Acute toxicity test): 1370 mg/kg
- conditioned avoidance response, first exposure ([8]; 10 mg/kg i.p., first exposure): 3%
- conditioned avoidance response, re-exposed ([8]; 10 mg/kg i.p., re-exposed): 29%
- ED50 ([8]; Rattus norvegicus, ip, 0.5 h, calculated with repeated exposure, r^2 = 0.43): 21.5 ± 11.2 mg/kg
- inhibition of conditioned avoidance response (in words) ([8]; rats): very active at first; also recorded: much less active if re-; also recorded: inhibit conditioned avoidance in rats, but are less active than diazepam; also recorded: loss of activity in the case of compound N^o 3 after the first exposure to the drug; also recorded: does not seem to impair the animal's sensory discrimination at doses 2 to 3 times above that which produces a quieting effect with repeated exposure
- percentage of animals displaying a loss of the righting reflex ([9]; 10 mg/kg i.p.): 50%
- percentage of animals displaying a loss of the righting reflex ([9]; 30 mg/kg i.p.): 50%
- percentage of animals displaying a loss of the righting reflex ([9]; 100 mg/kg i.p.): 25%
- potentiation of ethanol (in words) ([9]; subhypnotic dose of ethanol, mice): active at t = 30 min; also recorded: potentiate the effect of a subhypnotic effect dose of ethanol
